Consider three molecules from patent US6103888A, “Mammalian cationic proteins having lipopolysaccharide binding and anti-coagulant activity” (priority 1999, dated 2000).

Like-named read-outs stand apart in the source and are kept apart here.

Test [1] concerns RAW 264.7 cells. Nature of the test: LPS- or IFNγ-induced reactive nitrogen intermediate (RNI) production, Griess nitrite assay. Format: cell-based, murine. As to the method:
From the sequence of the CAP18 cDNA, it was apparent that the putative N-terminal peptide of CAP18 was in fact an internal fragment of the CAP18 protein. We therefore tried to reconfirm the original protein sequence. Neutrophil-derived heparin bound cationic proteins were prepared as described above and applied to a C18 reverse phase HPLC (FIG. 1). We sequenced the major peaks. Peaks at fractions 14.5 and 15.2 correspond to defensins MCP1 and MCP2 (Territo et al. (1989) J. Clin. Invest. 84:2017-2019), respectively. Fraction 25.8 is macrophage related protein 14 (MRP14) (Odink et al. (1987) Nature 330:80-82). The fraction at 20.3 minutes corresponds to a fragment of CAP18 of approximately 4-5 kD. […] The murine macrophage cell line RAW 264.7 (obtained from ATCC) and thioglycollate-elicited murine peritoneal exudate cells are used to produce RNI. Cells are cultured at 1×10^6 /ml. in RPMI-1640 +2.5% FCS in 24 well plates in the presence or absence of different concentrations of LPS or murine rlFNγ. After 24 hr. incubation at 37° C., the cell free supernatant is collected and tested for the presence of RNI. Accumulation of nitrite in the medium is measured by a calorimetric assay based on the Griess reaction (Green et al. (1982) Anal. Biochem. 126:11) using sodium nitrite as standards. Sample (50 μl) is mixed with 50 μl of Griess reagent (1% sulfanilamide, 0.1% naphthalene diamine dihydrochloride, 2.5% H3 PO4) and after 10 min. at room temperature absorbance is read at 570 nm.

Test [2] has as its system Salmonella minnesota ReLPS sensitized sheep erythrocytes. Nature of the test: LPS hemagglutination assay (MAC). Format: binding. As to the method:
(§1) For hemagglutination assays, erythrocytes were sensitized with LPS as follows. One ml of 1% erythrocyte suspension (human 0 type, C3H/HeN mouse or sheep) was mixed with 0.2 ml of LPS solution and incubated at 37° C. for 30 min, followed by washing with phosphate buffered saline (PBS), and then the concentration of suspension was adjusted to 1.0%. In the case of S-LPS, the solution was heated at 100° C. for 1 hour before sensitization of erythrocytes. […] Activity of CAP was expressed as a minimum agglutinating concentration (MAC) of CAP. According to the method of Kirikae et al. (1986) Microbiol. Immunol. 30:269-274, 50 μl of 2-fold serial dilution of Re-LPS was added to 50 μl of 1.0% rabbit erythrocyte suspension, and incubated at 37° C. for 3 hour. Minimum agglutinating concentration of Re-LPS was expressed as 1 HA unit.

For test [3], the system named is E. coli 0111:B4 LPS. Nature of the test: Inhibition of RNIP-mediated hemagglutination by LPS preparation. Format: binding. Particulars: Peptide #36-1 16 μg/ml, RNIP (#197) 25 μg/ml preincubated with LPS 37° 30 minutes. As to the method: as §1
(§2) Another series of experiments was performed to determine if the #36-1 and #197 (RNIP) peptides were capable of binding to LPS from various species of Gram-negative bacteria. For these experiments, sheep red blood cells were sensitized with Salmonella minnesota Re-LPS. Peptides #36-1 and #197 (RNIP) were preincubated with various preparations of LPS. Both peptides bind to a diverse group of lipopolysaccharides.
(§3) +Peptide #361 (16 μg/ml) and RNIP (#197) (25 μg/ml) were
(§4) preincubated with each LPS preparation at 37° for 30 minutes, and
(§5) each reaction mixture was added to sheep erythrocytes sensitized with […]

For test [4], the system named is E. coli 0127:B8 LPS. Described as above. Format: binding. As to conditions: Peptide #36-1 16 μg/ml, RNIP (#197) 25 μg/ml preincubated with LPS 37° 30 minutes. As to the method: as §1, §2, §3, §4, §5
The subject of test [5] is E. coli 055:B5 LPS. Described as above. Particulars: Peptide #36-1 16 μg/ml, RNIP (#197) 25 μg/ml preincubated with LPS 37° 30 minutes. Format: binding. As to the method:
as §1, §2, §3, §4, §5

Test [6] relates to E. coli J5 LPS. The test is described as above. Format: binding. As to conditions: Peptide #36-1 16 μg/ml, RNIP (#197) 25 μg/ml preincubated with LPS 37° 30 minutes. As to the method:
as §1, §2, §3, §4, §5

In test [7] the test system is Klebsiella pneumoniae LPS. The description is as above. It counts as binding. As to conditions: Peptide #36-1 16 μg/ml, RNIP (#197) 25 μg/ml preincubated with LPS 37° 30 minutes. As to the method:
as §1, §2, §3, §4, §5

Test [8] relates to Pseudomonas aeruginosa F-D Type I LPS. Described as above. Format: binding. Particulars: Peptide #36-1 16 μg/ml, RNIP (#197) 25 μg/ml preincubated with LPS 37° 30 minutes. As to the method: as §1, §2, §3, §4, §5
The test system of test [9] is Salmonella minnesota R595 LPS. The description is as above. It counts as binding. As to conditions: Peptide #36-1 16 μg/ml, RNIP (#197) 25 μg/ml preincubated with LPS 37° 30 minutes. As to the method:
as §1, §2, §3, §4, §5

The test system of test [10] is thioglycollate-stimulated murine peritoneal macrophages. Nature of the test: LPS-induced tissue factor generation by macrophages (clotting assay). It counts as cell-based. As to conditions: peptides 1 μg/ml incubated with S. minnesota smooth LPS 5 minutes; 6 hr. As to the method:
Tissue factor assay. Salmonella minnesota smooth LPS was incubated with each peptide (1 μg/ml) for 5 min., then the mixture was added to peritoneal murine macrophages obtained 4 days after thioglycollate stimulation. Cells were cultured for 6 hours prior to assay of tissue factor by clotting assay.
Various concentrations of Salmonella minnesota smooth LPS were incubated with each peptide (197 (RNIP), 36-1, 32-1, and 50-2) at 37° C. for 5 minutes prior to mixing with thioglycollate-stimulated murine peritoneal macrophages. Production of tissue factor after 6 hr. was measured by clotting assay. […] In the absence of LPS no tissue factor is synthesized by these cells.

In test [11] the test system is Human plasma. Nature of the test: Prothrombin time (PT). Format: biochemical. As to the method:
Prothrombin time (PT). Human plasma (100 μl) was incubated with 100 μl of each peptide at 37° C. for 3 min., then 100 μl of tissue factor (250 μg/ml) CaCl2 was added and clotting time was measured.

Test [12] concerns Human plasma. Nature of the test: Partial thromboplastin time (PTT). Format: biochemical. As to conditions: dose dependent. As to the method:
Partial thromboplastin time (PTT). Human plasma (100 μl) was incubated with each peptide (100 μl) at 37° C. for 3 min., then 100 μl of CaCl2 containing phospholipid was added and clotting time was measured.

Test [13] addresses T1, factor Xa (Homo sapiens, UniProt P00742).
T1 construct: purchased Sigma Chemical Co., St. Louis, Mo
In words: Direct Xa inhibition using Xa substrate S2222. Format: biochemical. Particulars: concentrations over 10 μg/ml. The text has this:
Clotting method: Human plasma (Ortho plasma control, Ortho Diagnostic Co.). ATPP reagent(Organo-technika, Tokyo, Japan). Standard tissue factor, rabbit brain thromboplastin (Simplastin, ONO Pharmaceutical, Tokyo, Japan). Purified human factor VII, factor X, factor Xa (Sigma Chemical Co., St. Louis, Mo.). Russell Viper venom (RVV) and Echis Carinatus venom (ECV, Sigma Co.).
Synthetic chromogenic substrate method: Substrate for factor Xa, S2222 (Kabi, Bz-Ile-Glu-Arg-pNA) was used. Substrate for factor II (prothrombin), Boc-Val-Pro-Arg-pNA (Sigma Chemical Co.) was used.

The target in test [14] is T2, factor X (Homo sapiens, UniProt P00742).
T2 construct: purchased Sigma Chemical Co., St. Louis, Mo
T2 sequence (P00742 183-488): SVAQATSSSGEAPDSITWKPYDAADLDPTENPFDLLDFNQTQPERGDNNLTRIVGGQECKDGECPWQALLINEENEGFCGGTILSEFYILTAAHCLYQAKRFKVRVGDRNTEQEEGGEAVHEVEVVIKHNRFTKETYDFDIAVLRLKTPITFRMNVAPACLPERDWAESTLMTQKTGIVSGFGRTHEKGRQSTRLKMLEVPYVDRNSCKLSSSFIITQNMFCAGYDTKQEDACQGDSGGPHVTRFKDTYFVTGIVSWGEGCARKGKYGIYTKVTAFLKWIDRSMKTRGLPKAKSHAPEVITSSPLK
T2 sequence (P00742 41-179): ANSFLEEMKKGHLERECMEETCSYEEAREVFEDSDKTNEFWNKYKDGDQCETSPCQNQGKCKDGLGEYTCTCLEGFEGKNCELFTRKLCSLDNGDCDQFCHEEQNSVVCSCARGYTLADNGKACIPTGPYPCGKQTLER
Nature of the test: Factor X activation by tissue factor and factor VII, synthetic substrate S-2222. It counts as biochemical. As to the method: Factor Xa activity using synthetic substrate. A reaction mixture of factor VII (1 unit/ml, 200 μl), factor X (1 unit/ml, 200 μl), tissue factor (2.5 mg/ml, 50 μl), 25 mM-CaCl2 (50 μl) and 50 μl of several concentration of peptide was incubated at 37° C. for 10 min. To 200 Al of the reaction mixture, 60 μl of 4 mM S-2222, a synthetic substrate for factor Xa, and 340 μl of Tris-HCl buffer, pH 8.2, was added and further incubated for 15 min. The reaction was stopped by adding 60 μl of 50% acetic acid, and OD for p-nitroaniline was read at 405 nm.

Test [15] concerns the target prothrombin (factor II) (Homo sapiens, UniProt P00734). Nature of the test: Prothrombin activation by Echis Carinatus venom (ECV). It counts as biochemical. As to the method: Prothrombin activation by Echis Carinatus venom (ECV). A reaction mixture of prothrombin (factor II) (0.1 unit/ml, 200 μl), ECV (1 unit/ml, 200 μl), various concentration of peptide (70 μl), 50 μl of 25 mM-CaCl2 and 180 μl of Tris buffer was incubated at 37° C. for 10 min. To 300 μl of the reaction mixture, 60 μl of 4 mM-thrombin substrate and 240 μl of buffer was added and further incubated for 15 min.

The test system of test [16] is coagulation. In words: Anti-coagulant activity of human RNIP (preliminary studies). Format: biochemical.
Test [17] concerns encapsulated E. coli. As to conditions: cited from earlier work.
In test [18] the test system is rough mutant strain of Proteus mirabilis. Particulars: cited from earlier work.
Test [19] concerns wild-type smooth Proteus mirabilis. Particulars: wild-type smooth organism (Proteus mirabilis); cited from earlier work.
In test [20] the test system is Staphylococcus aureus. As to conditions: Gram-positive Staphylococcus aureus; cited from earlier work.

T1 sequence (P00742 235-488 limits assumed): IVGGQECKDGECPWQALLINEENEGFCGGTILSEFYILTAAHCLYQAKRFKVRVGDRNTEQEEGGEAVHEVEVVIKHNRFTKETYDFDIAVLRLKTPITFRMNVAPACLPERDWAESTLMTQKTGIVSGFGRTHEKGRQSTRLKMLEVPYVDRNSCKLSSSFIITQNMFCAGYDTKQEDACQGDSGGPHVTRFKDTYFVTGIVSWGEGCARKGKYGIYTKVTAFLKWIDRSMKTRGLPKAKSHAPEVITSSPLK
T1 sequence (P00742 41-179 limits assumed): as the sequence (P00742 41-179) above

Broadly, the IC50 is the concentration at which inhibition is half-maximal. Consider “36-1: synthetic rabbit RNIP fragment, amino acids 135-166 of SEQ ID NO:4 (GLRKRLRKFRNKIKEKLKKIGQKIQGLLPKLA) [Peptide 36-1]”, for which the “concentrations at which peptides are active in the bioassay” value in test [1] (day-to-day variation in the bioassay) was 10 to 50 nM. In [1] (macrophages / RAW 264.7 cells), the “inhibition of LPS-induced RNI production (in words)” value was “active”. Besides, the “Hemagglutination [MAC], minimum agglutinating concentration” value in [2] is 3.9 µg/mL. Further, the “MIC, minimal inhibitory concentration of LPS” value in test [3] came to 15.6 µg/mL; in test [4], 15.6 µg/mL; in test [5], 15.6 µg/mL; in test [6], 7.8 µg/mL; in test [7], 31.3 µg/mL; in [8] it was 3.9 µg/mL. For the same molecule, in test [9], the “MIC, minimal inhibitory concentration of LPS” value came to 15.6 µg/mL. In [10], the “inhibition of LPS induced tissue factor (in words)” value was “inhibition”. In [11], the “inhibition of the prothrombin time (PT), in words” value was “inhibited”. In addition, in [12], the “inhibition of the partial thromboplastin time (PTT), in words” value was “inhibited”. The “direct Xa inhibition (in words)” value in [13] is reported as “No evidence of direct Xa inhibition”. Moreover, in test [14] (synthetic substrate), the “IC50, Tissue factor VII, X to Xa” value lay in the range of 0.3 to 0.7 µg/mL. Moreover, the IC50 in test [14] (text value for both peptides, read-out: IC50, factor X activated by tissue factor and purified factor VII) was 40 to 100 nM. Further, the “inhibition of Echis carinatus venom activation of purified factor II to IIa (in words)” value in test [15] is “inhibited”.
In the case of “human RNIP: synthetic polypeptide comprising amino acids 134 to 170 of SEQ ID NO:2 (LLGDFFRKSKEKIGKEFKRIVQRIKDFLRNLVPRTES)”, the “anti-coagulant activity (in words)” value in [16] is “lacks significant anti-coagulant activity”; in test [16] (listed as Human RNIP), “free from anti-coagulant activity”.

B1: BPI55: BPI holoprotein (protein, UniProt P17213 32-487, looked up)
Bactericidal …: VNPGVVVRISQKGLDYASQQGTAALQKELKRIKIPDYSDSFKIKHLGKGHYSFYSMDIREFQLPSSQISMVPNVGLKFSISNANIKISGKWKAQKRFLKMSGNFDLSIEGMSISADLKLGSNPTSGKPTITCSSCSSHINSVHVHISKSKVGWLIQLFHKKIESALRNKMNSQVCEKVTNSVSSELQPYFQTLPVMTKIDSVAGINYGLVAPPATTAETLDVQMKGEFYSENHHNPPPFAPPVMEFPAAHDRMVYLGLSDYFFNTAGLVYQEAGVLKMTLRDDMIPKESKFRLTTKFFGTFLPEVAKKFPNMKIQIHVSASTPPHLSVQPTGLTFYPAVDVQAFAVLPNSSLASLFLIGMHTTGSMEVSAESNRLVGELKLDRLLLELKHSNIGPFPVELLQDIMNYIVPILVLPRVNEKLQKGFPLPTPARVQLYNVVLQPHQNFLLFGADVVYK
Turning to B1, the “growth inhibitory activity, reduction over control” value in test [17] is reported as “about 100 fold”. The growth inhibition entry in [18] is on record as “inhibited the growth”; in test [19], “only the rBPI23 inhibited growth”; in test [20] it was “Neither rBPI23 nor holoprotein BPI55 demonstrated inhibition”.
